pIC50: −log10 of the molar value.

In the first assay the target is T1, Recombinant human cathepsin A (Homo sapiens, UniProt P10619).
T1 construct: Recombinant human cathepsin A (residues 29-480, with a C-terminal 10-His tag); 10-His (C); purchased R&D Systems 1049-SE
T1 sequence (P10619 29-312 limits assumed): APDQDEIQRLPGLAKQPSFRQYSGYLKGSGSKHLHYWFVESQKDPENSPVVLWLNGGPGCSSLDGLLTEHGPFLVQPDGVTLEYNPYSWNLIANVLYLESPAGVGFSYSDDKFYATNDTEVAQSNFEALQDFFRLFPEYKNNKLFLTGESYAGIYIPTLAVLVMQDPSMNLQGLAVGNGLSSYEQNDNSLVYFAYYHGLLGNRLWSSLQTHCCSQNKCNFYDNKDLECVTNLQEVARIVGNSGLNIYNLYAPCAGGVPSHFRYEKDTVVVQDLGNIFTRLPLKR
T1 sequence (P10619 327-480 limits assumed): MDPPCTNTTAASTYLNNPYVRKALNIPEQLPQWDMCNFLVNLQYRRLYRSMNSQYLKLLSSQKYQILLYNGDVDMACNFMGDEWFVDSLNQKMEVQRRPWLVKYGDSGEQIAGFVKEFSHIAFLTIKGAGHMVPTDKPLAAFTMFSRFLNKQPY
The assay can be described thus: Cathepsin A inhibitory activity. In kind it is biochemical. The conditions noted are these: pharmacological test "Cathepsin A inhibitory activity"; IC50 given as class A/B/C; read-out: Activity (2): Cathepsin A inhibitory activity, IC50 class. Here is the method:
a) Cathepsin A Inhibitory Activity
Recombinant human cathepsin A (residues 29-480, with a C-terminal 10-His tag; R&D Systems, #1049-SE) was proteolytically activated with recombinant human cathepsin L (R&D Systems, #952-CY). Briefly, cathepsin A was incubated at 10 μg/ml with cathepsin L at 1 μg/ml in activation buffer (25 mM 2-(morpholin-4-yl)-ethanesulfonic acid (MES), pH 6.0, containing 5 mM dithiothreitol (DTT)) for 15 min at 37° C. Cathepsin L activity was then stopped by the addition of the cysteine protease inhibitor E-64 (N-(trans-epoxysuccinyl)-L-leucine-4-guanidinobutylamide; Sigma-Aldrich, #E3132; dissolved in activation buffer/DMSO) to a final concentration of 10 μM.
The activated cathepsin A was diluted in assay buffer (25 mM MES, pH 5.5, containing 5 mM DTT) and mixed with the test compound (dissolved in assay buffer containing (v/v) 3% DMSO) or, in the control experiments, with the vehicle in a multiple assay plate. After incubation for 15 min at room temperature, as substrate then bradykinin carrying an N-terminal®Bodipy FL (4,4-difluoro-5,7-dimethyl-4-bora-3a,4a-diaza-s-indacene-3-propionyl) label (JPT Peptide Technologies GmbH; dissolved in assay buffer) was added to the mixture. The final concentration of cathepsin A was 833 ng/ml and the final concentration of labeled bradykinin 2 μM. After incubation for 15 min at room temperature the reaction was stopped by the addition of stop buffer (130 mM 2-(4-(2-hydroxy-ethyl)-piperazin-1-yl)-ethanesulfonic acid, pH 7.4, containing (v/v) 0.013% Triton X-100, 0.13% Coating Reagent 3 (Caliper Life Sciences), 6.5% DMSO and 20 μM ebelactone B (Sigma, # E0886)).
Uncleaved substrate and product were then separated by a microfluidic capillary electrophoresis on a LabChip® 3000 Drug Discovery System (12-Sipper-Chip; Caliper Life Sciences) and quantified by determination of the respective peak areas. Substrate turnover was calculated by dividing product peak area by the sum of substrate and product peak areas, and the enzyme activity and the inhibitory effect of the test compound thus quantified. From the percentage of inhibition of cathepsin A activity observed with the test compound at several concentrations, the inhibitory concentration IC50, i.e. the concentration which effects 50% inhibition of enzyme activity was, calculated.
As to `COc1ccc(Cl)cc1C(CC(=O)O)NC(=O)c1cc(O)n(-c2ccccc2F)n1` (stereo not shown) [Example 234], the negative logarithm of the IC50 (pIC50) was 6.00 to 7.00. Same read-out and setting: to `O=C(O)CC(NC(=O)c1cc(O)n(-c2ccccc2Cl)n1)c1ccc(-c2cccc(F)c2)cc1` (stereo not shown) [Example 219] belongs 6.00 to 7.00.

`Cc1cccc(C(CC(=O)O)NC(=O)c2cc(O)n(-c3ccc(F)cc3F)n2)c1C` (stereo not shown) [Example 191]: the pIC50 was over 7.00. On the same count and under the same terms, to `Cc1cccc([C@H](CC(=O)O)NC(=O)c2cc(O)n(-c3cccc(Cl)c3)n2)c1` [Example 258] belongs 6.00 to 7.00; to `CCc1ccc(C(CC(=O)O)NC(=O)c2cc(O)n(-c3cccc(Cl)c3)n2)cc1` (stereo not shown) [Example 264], 6.00 to 7.00; to `COc1ccc(C(CC(=O)O)NC(=O)c2cc(O)n(-c3cccc(Cl)c3)n2)c(C)c1` (stereo not shown) [Example 250], 6.00 to 7.00.

The assay is the same for the next values; noted with them: read-out: Activity (2): Cathepsin A inhibitory activity (IC50 class).
Take `O=C(O)CC(NC(=O)c1cc(O)n(-c2ccccc2Cl)n1)c1ccc(N2CCCC2)cc1` (stereo not shown) [Example 568, 3-{[1-(2-Chloro-phenyl)-5-hydroxy-1H-pyrazole-3-carbonyl]-amino}-3-(4-pyrrolidin-1-yl-phenyl)-propionic acid]: the negative logarithm of the IC50 (pIC50) is 4.52 to 6.00. Same read-out and setting: the result for `CCOc1cc(C(=O)NC(CC(=O)O)c2ccc(F)cc2C)nn1-c1ccccc1F` (stereo not shown) [Example 718] reads over 7.00; that for `Cc1ccccc1C(CC(=O)O)NC(=O)c1nn(-c2ccccc2F)c(O)c1C` (stereo not shown) [Example 592], 6.00 to 7.00; that for `COc1cc(C(=O)NC(CC(=O)O)c2ccc(-c3ccc(F)cc3)cc2)nn1-c1ccccc1F` (stereo not shown) [Example 543], 6.00 to 7.00. Take `Cc1ccc([C@H](CC(=O)O)NC(=O)c2cc(OC[C@@](C)(O)C(C)C)n(-c3ccccc3F)n2)cc1` [Example 766, (S)-3-{[1-(2-Fluoro-phenyl)-5-((S)-2-hydroxy-2,3-dimethyl-butoxy)-1H-pyrazole-3-carbonyl]-amino}-3-p-tolyl-propionic acid]: the negative logarithm of the IC50 (pIC50) is over 7.00. With `COc1cccc(COc2cc(C(=O)N[C@@H](CC(=O)O)c3ccccc3C)nn2-c2ccccc2F)c1` [Example 655], the negative logarithm of the IC50 (pIC50) is over 7.00. As for `CC(C)(C)[C@](C)(O)COc1cc(C(=O)NC(CC(=O)O)C2CCCCC2)nn1-c1ccccc1F` (stereo partly drawn) [Example 773, 3-Cyclohexyl-3-{[1-(2-fluoro-phenyl)-5-((S)-2-hydroxy-2,3,3-trimethyl-butoxy)-1H-pyrazole-3-carbonyl]-amino}-propionic acid], the pIC50 is over 7.00.

The same assay, now with this note: read-out: Activity (2): Cathepsin A inhibitory activity, IC50 class.
`COc1cccc([C@H](CC(=O)O)NC(=O)c2cc(O)n(-c3ccccc3F)n2)c1OC` [Example 403]: the pIC50 is 6.00 to 7.00. Same read-out and setting: to `O=C(O)CC(NC(=O)c1cc(O)n(-c2cccc(F)c2)n1)c1ccc(-c2cccc(F)c2)cc1` (stereo not shown) [Example 319] belongs 6.00 to 7.00; to `O=C(O)C[C@H](NC(=O)c1cc(O)n(-c2ccccc2F)n1)c1ccccc1Br` [Example 397], over 7.00. On the same count and under the same terms, the result for `O=C(O)C[C@H](NC(=O)c1cc(O)n(-c2ccc(F)cc2F)n1)c1c(F)cccc1F` [Example 388] reads 6.00 to 7.00; that for `O=C(O)CC(NC(=O)c1cc(O)n(-c2ccc(F)cc2)n1)c1cccc(Cl)c1F` (stereo not shown) [Example 361], 6.00 to 7.00; that for `Cc1ccc(C)c(-n2nc(C(=O)NC(C)(C)CC(=O)O)cc2O)c1` [Example 8], 4.52 to 6.00.

For `Cc1ccc(C)c(-n2nc(C(=O)NC(CC(=O)O)c3cccc(F)c3)cc2O)c1` (stereo not shown) [Example 49], the pIC50 is 4.52 to 6.00.

In the case of `COc1ccc(C(CC(=O)O)NC(=O)c2cc(O)n(-c3ccc(F)cc3)n2)c(F)c1` (stereo not shown) [Example 90], the negative-log IC50 (pIC50) was 4.52 to 6.00. As to `N#Cc1ccc([C@H](CC(=O)O)NC(=O)c2cc(O)n(-c3ccccc3)n2)cc1` [Example 101], the pIC50 was 6.00 to 7.00. On the same count and under the same terms, the result for `Cc1cc(F)ccc1C(CC(=O)O)NC(=O)c1cc(O)n(-c2ccc(F)cc2)n1` (stereo not shown) [Example 364] reads 6.00 to 7.00; that for `O=C(O)CC(NC(=O)c1cc(O)n(-c2ccc(F)c(Cl)c2)n1)c1ccc(F)cc1` (stereo not shown) [Example 72], 4.52 to 6.00; that for `CCCCC(CC(=O)O)NC(=O)c1cc(O)n(-c2ccccc2)n1` (stereo not shown) [Example 14], 6.00 to 7.00.

With `O=C(O)C[C@H](NC(=O)c1cc(O)n(-c2ccc(F)cc2)n1)c1cccc(Cl)c1Cl` [Example 347], the pIC50 was 6.00 to 7.00. The same measure, in the same setting: to `O=C(O)CC(NC(=O)c1cc(O)n(-c2cccc(F)c2)n1)c1cccc(Cl)c1Cl` (stereo not shown) [Example 314] belongs over 7.00. In the case of `O=C(O)C[C@H](NC(=O)c1cc(O)n(-c2ccccc2Cl)n1)c1ccc(Cl)cc1` [Example 109], the negative-log IC50 (pIC50) was 6.00 to 7.00. Still for that read-out and setting: the result for `Cc1ccc(C)c(-n2nc(C(=O)NC(CC(=O)O)c3cccc(OC(C)(C)C)c3)cc2O)c1` (stereo not shown) [Example 7, 3-(3-tert-Butoxy-phenyl)-3-{[1-(2,5-dimethyl-phenyl)-5-hydroxy-1H-pyrazole-3-carbonyl]-amino}-propionic acid] reads 4.52 to 6.00.

The assay is the same for the next values; noted with them: recombinant human cathepsin A 833 ng/ml, Bodipy FL-labeled bradykinin 2 μM, pH 5.5; read-out: CATH-A IC50.
With `Cc1ccc(F)cc1C(CC(=O)O)NC(=O)c1cc(O)n(-c2ccc(F)cc2)n1` (stereo not shown) [Example 492, 3-(5-Fluoro-2-methyl-phenyl)-3-{[1-(4-fluoro-phenyl)-5-hydroxy-1H-pyrazole-3-carbonyl]-amino}-propionic acid], the pIC50 was 6.76. For the molecule `Cc1c(F)cccc1C(CC(=O)O)NC(=O)c1cc(O)n(-c2ccc(Cl)cc2)n1` (stereo not shown) [Example 468, 3-{[1-(4-Chloro-phenyl)-5-hydroxy-1H-pyrazole-3-carbonyl]-amino}-3-(3-fluoro-2-methyl-phenyl)-propionic acid], the negative-log IC50 (pIC50) was 6.55. Turning to `O=C(O)CC(NC(=O)c1cc(O)n(-c2cccc(Cl)c2)n1)c1ccccc1SC(F)(F)F` (stereo not shown) [Example 467, 3-{[1-(3-Chloro-phenyl)-5-hydroxy-1H-pyrazole-3-carbonyl]-amino}-3-(2-trifluoromethylsulfanyl-phenyl)-propionic acid], the pIC50 was 5.65. Same read-out and setting: to `O=C(O)CC(NC(=O)c1cc(O)n(-c2ccccc2Cl)n1)c1ccc(N2CCCC2)cc1` (stereo not shown) [Example 568, 3-{[1-(2-Chloro-phenyl)-5-hydroxy-1H-pyrazole-3-carbonyl]-amino}-3-(4-pyrrolidin-1-yl-phenyl)-propionic acid] belongs 5.63; to `O=C(O)CC(NC(=O)c1cc(O)n(-c2ccccc2)n1)c1cc(F)ccc1C(F)(F)F` (stereo not shown) [Example 443, 3-(5-Fluoro-2-trifluoromethyl-phenyl)-3-[(5-hydroxy-1-phenyl-1H-pyrazole-3-carbonyl)-amino]-propionic acid], 6.66. Regarding `O=C(O)C[C@H](NC(=O)c1cc(O)n(-c2ccc(Cl)cc2)n1)c1ccccc1Cl` [Example 474, (S)-3-(2-Chloro-phenyl)-3-{[1-(4-chloro-phenyl)-5-hydroxy-1H-pyrazole-3-carbonyl]-amino}-propionic acid], the negative-log IC50 (pIC50) was 6.68. For the molecule `Cc1ccc([C@H](CC(=O)O)NC(=O)c2cc(OC[C@@](C)(O)C(C)C)n(-c3ccccc3F)n2)cc1` [Example 766, (S)-3-{[1-(2-Fluoro-phenyl)-5-((S)-2-hydroxy-2,3-dimethyl-butoxy)-1H-pyrazole-3-carbonyl]-amino}-3-p-tolyl-propionic acid], the negative logarithm of the IC50 (pIC50) was 9.16.

The same assay, now with this note: recombinant human cathepsin A; read-out: Activity (2): Cathepsin A inhibitory activity, IC50 class.
With `Cc1ccc(F)cc1C(CC(=O)O)NC(=O)c1cc(O)n(-c2ccc(F)cc2)n1` (stereo not shown) [Example 492, 3-(5-Fluoro-2-methyl-phenyl)-3-{[1-(4-fluoro-phenyl)-5-hydroxy-1H-pyrazole-3-carbonyl]-amino}-propionic acid], the pIC50 is 6.00 to 7.00.

Turning to `Cc1c(F)cccc1C(CC(=O)O)NC(=O)c1cc(O)n(-c2ccc(Cl)cc2)n1` (stereo not shown) [Example 468, 3-{[1-(4-Chloro-phenyl)-5-hydroxy-1H-pyrazole-3-carbonyl]-amino}-3-(3-fluoro-2-methyl-phenyl)-propionic acid], the negative logarithm of the IC50 (pIC50) was 6.00 to 7.00. On the same count and under the same terms, to `O=C(O)CC(NC(=O)c1cc(O)n(-c2cccc(Cl)c2)n1)c1ccccc1SC(F)(F)F` (stereo not shown) [Example 467, 3-{[1-(3-Chloro-phenyl)-5-hydroxy-1H-pyrazole-3-carbonyl]-amino}-3-(2-trifluoromethylsulfanyl-phenyl)-propionic acid] belongs 4.52 to 6.00; to `O=C(O)CC(NC(=O)c1cc(O)n(-c2cccc(F)c2)n1)c1ccc(-c2ccccn2)cc1` (stereo not shown) [Example 521], 6.00 to 7.00; to `Cc1cccc(C(CC(=O)O)NC(=O)c2cc(O)n(-c3cccc(F)c3)n2)c1C` (stereo not shown) [Example 432], 6.00 to 7.00. Same read-out and setting: the result for `O=C(O)CC(NC(=O)c1cc(O)n(-c2cccc(Cl)c2)n1)c1ccc(-c2ccccc2)cc1` (stereo not shown) [Example 421] reads 6.00 to 7.00; that for `O=C(O)CC(NC(=O)c1cc(O)n(-c2ccccc2)n1)c1cc(F)ccc1C(F)(F)F` (stereo not shown) [Example 443, 3-(5-Fluoro-2-trifluoromethyl-phenyl)-3-[(5-hydroxy-1-phenyl-1H-pyrazole-3-carbonyl)-amino]-propionic acid], 6.00 to 7.00. On the same count and under the same terms, the result for `O=C(O)C[C@H](NC(=O)c1cc(O)n(-c2cccc(F)c2)n1)c1cccc(Cl)c1` [Example 430] reads 6.00 to 7.00; that for `O=C(O)C[C@H](NC(=O)c1cc(O)n(-c2ccc(Cl)cc2)n1)c1ccccc1Cl` [Example 474, (S)-3-(2-Chloro-phenyl)-3-{[1-(4-chloro-phenyl)-5-hydroxy-1H-pyrazole-3-carbonyl]-amino}-propionic acid], 6.00 to 7.00. Take `COc1cc(C(=O)N[C@@H](CC(=O)NC[C@@H]2CCCO2)c2ccccc2C)nn1-c1ccccc1F` [Example 938, 1-(2-Fluoro-phenyl)-5-methoxy-1H-pyrazole-3-carboxylic acid ((S)-2-{[(S)-1-(tetrahydro-furan-2-yl)methyl]-carbamoyl}-1-o-tolyl-ethyl)-amide]: the negative-log IC50 (pIC50) was over 7.00.

The values are drawn from patent US8664257B2, “Oxygen-substituted 3-heteroaroylamino-propionic acid derivatives and their use as pharmaceuticals” (Sanofi, priority 2010, dated 2014).
